Reference: patent publication US8101159B2, “In vivo methods of identifying compounds which target suppressed cancer cells” (The Board of Regents of the University of Oklahoma, priority 2005, dated 2012)

Assays:
suppressed cancer cells = experiment: Library screen and dose-response, cells on normal matrix vs cells on plastic; format: cell-based; settings: FIGS. 3A, 3B, 6A-6C
Method: Screening of compounds. The National Cancer Institute Developmental Therapeutics Program (NCI DTP) diversity set of 1990 compounds1 was obtained by material transfer agreement and was diluted to a final concentration of 166.7 μM in serum-containing media and placed onto cells for 72 hours at 37° C. and 5% CO2. A marker of cell proliferation using the substrate 5-carboxyfluorescein diacetate acetoxymethyl ester (CFDA-AM) cleaved to fluorescein by non-specific cellular esterases was used. Briefly, media containing a final concentration of 5 μM CFDA-AM (Molecular Probes, Eugene, Oreg.) was added in PBS for two h at 37° C. Plates were then read by a FLUOstar Optima plate reader (BMG LABTECH, Durham, N.C.) using 385 nm excitation, 428 nm emission filter.
(§1) Dose-response relations of lead compounds. To 100 μl media on cells was added 100 μl of a 2× (666.7 μM) stock of either doxorubicin, tetrandrine or o-cresolphthalein in completed media in a single column in a 96-well plate. 1:3 dilutions were made from this highest dose by removing 66.7 μl into the next column of cells containing 133 μl media. Cells were incubated with drug for 72 hours, then the CFDA-AM assay completed as described above.
Drug screening. The percent inhibition of cell proliferation (as determined by CFDA-AM cleavage) as compared to untreated cells was calculated for each drug in the wells of plates. The ratio of percent inhibition of the same drug of cells grown on SISgel as compared to non-confluent monolayers also was calculated. All library compounds were screened twice for consistency.
(§2) Dose-response relations. Data were graphed as percent inhibition of proliferation as compared to untreated cells and from this EC50 values calculated using sigmoidal dose-response non-linear regression analysis (GraphPad Prism 4.0 software, San Diego, Calif.). Dose-response relation data were compared to one another using two-way ANOVA with Bonferroni post-test (GraphPad Prism 4.0 software, San Diego, Calif.).
SISgel (90 μl) is added to wells of a 96-well plate and allowed to gel. Cancer cells in 50 μl of nutrient (such as, for example, J82 bladder cancer cell, RT4 cancer cells, TCCSUP cancer cells, 5637 cancer cells, MDA-MB-468 breast cancer cells, or B16-F10 skin tumor (or any metastatic murine melanoma)) are added to each well and allowed to attach and grow. After 24 hours, the test compounds are added to wells at 10 μM concentration. The cells are allowed to grow in the presence of the test compound for 24 hours, at which time the number of cells (or survival or mortality) are estimated by a fluorometric method. In one embodiment, the fluorometric method is an assay performed using an esterase substrate, 5-carboxyfluorescein diacetate acetoxymethyl ester (CFDA) (available from Molecular Probes, Eugene, Oreg., USA), however, any suitable assay for measuring cell survival or mortality known by those of ordinary skill in the art may be used. Examples of fluorometers which can be used include, but are not limited to, FLUOStar Optima plate reader (BMG Biotech), FL600 fluorescent plate reader (Bio-Tek Instruments), Victor2 plate reader (Wallac), FluoroCount BF10000 fluorescent microplate reader (Packard), CytoFluor® 4000 (Applied Biosystems), Bio-Tek Synergy, BMG FLUOstar Galaxy and OPTIMA, PerkinElmer Victor™, PerkinElmer HTS 7000, TECAN SpectraFluor Plus, Thermo LabSystems Fluoroskan Ascent, and the like.
The cell number results are compared to those observed in cells grown conventionally on plastic in nearly confluent monolayers that show approximately the same growth rate as the cells on SISgel. […] In other embodiments, the ratio used may be, for example, less than two fold or greater than two fold as long as the cell number or survival on non-suppressing cell support matrix is greater than the number of cells on the suppressing cell support matrix. Preferably, each positive result is then confirmed by a full dose-response curve. […]

[1] = system: J82 metastatic bladder cancer cells; experiment: In vivo flank xenograft, GFP-tagged cells co-injected with permissive Matrigel; settings: nude mice; for activity against actively growing cells in vivo (fluorescence imaging): 35 mg/kg Monday, Wednesday and Friday from day 8
Method: (§3) Flank xenograft model. J82 cells stably expressing green fluorescent protein (GFP) were prepared as follows. pLEGFP-C1 retrovirus (Clontech, Mountain View, Calif.) was co-transfected with the pVSV-G vector (Clontech, Mountain View, Calif.) which contains a viral envelope gene into the packaging cell line GP2-293 (Clontech, Mountain View, Calif.). Supernatant from the packaging cells containing the infective virus was collected every 24 hours for 4 days. Fluorescent target cells were made by infecting J82s, a urothelial transitional cell carcinoma cell line (ATCC, Manassas, Va.), with 1 ml of fresh, virus containing, supernatant/well containing 100,000 target cells along with 8 μg/ml of polybrene (Sigma Aldrich, St. Louis, Mo.). Each application of viral supernatant was filtered through a 0.4 μM syringe filter before application to target cells. Supernatant was removed and fresh virus containing media replenished on target cells every 24 hours until 4 changes of media were completed. Virus containing media was replaced with Minimum Essential Media, MEM, (Life Technologies, Carlsbad, Calif.) containing 1% nonessential amino acids, 1% L-glutamine, 1% sodium pyruvate and 10% Fetal Calf Serum, and cells were allowed to grow to 90% confluence. Stable transfects were selected through sequential sorting and enrichment of fluorescent cells using flow cytometry.
In sterile 500 μl centrifuge tubes, placed on ice, 100 μl of cell suspension was mixed with either 100 μl ice-cold prepared SISgel or ice-cold Matrigel and mixed well. The mix was immediately injected into either the right or left flank of a 5-week old nude mouse, nu/nu-nuBR, (Charles River Laboratories, Wilmington, Mass.). Caliper measurements of tumor size were taken every week for the length of the study as were fluorescent images. […] The area and intensity of the tumor was measured using Adobe Photoshop by first selecting the tumor area, then counting pixels above a threshold selected to eliminate background, non-tumor areas. The integrated intensity was calculated by multiplying the average intensity of detected pixels by the number of pixels detected.
(§4) In this experiment, the activities of three compounds identified by the in vitro screening method were compared against both ECM-suppressed (SISgel, right) and actively growing (Matrigel, left) J82 metastatic bladder cancer cells. […] When tumors were first visible fluorescently (8 days after implantation), 35 mg/kg Bordeaux Red, tetrabromofluorescein, or Wool Violet 2R were injected Monday, Wednesday and Friday and tumor size was measured using fluorescence microscopy. A representative time course of fluorescence imaging is shown from a single animal for each treatment group. […]

MDA-MB-468 cells = experiment: Complete dose response, cells in SISgel vs monolayers or Matrigel; format: cell-based; settings: FIGS. 8A-8B
Method: as §1, §2
(§5) SISgel (90 μl) is added to wells of a 96-well plate and allowed to gel. […] Examples of fluorometers which can be used include, but are not limited to, FLUOStar Optima plate reader (BMG Biotech), FL600 fluorescent plate reader (Bio-Tek Instruments), Victor2 plate reader (Wallac), FluoroCount BF10000 fluorescent microplate reader (Packard), CytoFluor® 4000 (Applied Biosystems), Bio-Tek Synergy, BMG FLUOstar Galaxy and OPTIMA, PerkinElmer Victor™, PerkinElmer HTS 7000, TECAN SpectraFluor Plus, Thermo LabSystems Fluoroskan Ascent, and the like. […]

B16-F10 cells = experiment: as above; format: cell-based, murine; settings: FIGS. 9A-9B
Method: as §1, §2, §5

[2] = system: J82 metastatic bladder cancer cells; experiment: In vivo flank xenograft, GFP-tagged cells co-injected with suppressive SISgel; settings: nude mice, 35 mg/kg Monday, Wednesday and Friday from day 8
Method: as §3, with “Virus containing media was replaced with Minimum Essential Media, MEM, (Life Technologies, Carlsbad, Calif.) containing 1% nonessential amino acids, 1% L-glutamine, 1% sodium pyruvate and 10% Fetal Calf Serum, and cells were allowed to grow to 90% confluence. Stable transfects were selected through sequential sorting and enrichment of fluorescent cells using flow cytometry.” left out
In sterile 500 μl centrifuge tubes, placed on ice, 100 μl of cell suspension was mixed with either 100 μl ice-cold prepared SISgel or ice-cold Matrigel and mixed well. […] The area and intensity of the tumor was measured using Adobe Photoshop by first selecting the tumor area, then counting pixels above a threshold selected to eliminate background, non-tumor areas. The integrated intensity was calculated by multiplying the average intensity of detected pixels by the number of pixels detected.
as §4

J82 cells = experiment: Cell proliferation dose-response (CFDA-AM), cells on SISgel vs non-confluent monolayers; format: cell-based
Method: Plating of cells for screening. Three-dimensional gel cultures with Matrigel were made by layering 50 μl of ice cold Matrigel into wells of a Costar 3610 white, clear bottom 96-well plates (Corning, Corning, N.Y.) allowed to gel at 37° C. Confluent cells were trypsinized with 1 ml 0.25% trypsin −1 mM EDTA, and 30,000 were added to wells containing the gelled matrices. The cells were fed with 50 μl of their respective media containing 10% fetal calf serum. To establish non-confluent monolayers, cells were plated at a cell density of 10,000/well 24 hours prior to drug treatments.
Screening of compounds. […] Plates were then read by a FLUOstar Optima plate reader (BMG LABTECH, Durham, N.C.) using 385 nm excitation, 428 nm emission filter. […]
Drug screening. The percent inhibition of cell proliferation (as determined by CFDA-AM cleavage) as compared to untreated cells was calculated for each drug in the wells of plates. The ratio of percent inhibition of the same drug of cells grown on SISgel as compared to non-confluent monolayers also was calculated. […]
Dose-response relations. Data were graphed as percent inhibition of proliferation as compared to untreated cells and from this EC50 values calculated using sigmoidal dose-response non-linear regression analysis (GraphPad Prism 4.0 software, San Diego, Calif.). […]

## O=C1OC2(c3ccc(O)cc3Oc3cc(O)ccc32)c2c(Br)c(Br)c(Br)c(Br)c21 [3,4,5,6-tetrabromofluorescein]
Suppressed cancer cells
  sensitivity of cells on normal matrix compared with cells grown on plastic: several fold increased sensitivity
[1]; 35 mg/kg
  rate of tumor growth in Matrigel treated animals compared with controls: weak inhibition of tumor growth
[1]
  activity against actively growing cells in vivo (fluorescence imaging): none of the three compounds had any activity
MDA-MB-468 cells
  EC50 of cells grown in SISgel compared with monolayers or Matrigel: lower EC50 values
B16-F10 cells
  EC50 of cells grown in SISgel compared with monolayers or Matrigel: lower EC50 values
[2]
  effect on ECM-suppressed cells in vivo (fluorescence imaging): caused disappearance of the cells

## O=S(=O)([O-])c1ccc2c(N=Nc3cccc4ccccc34)c(O)c(S(=O)(=O)[O-])cc2c1.[Na+].[Na+] [Bordeaux Red]
Suppressed cancer cells
  sensitivity of cells on normal matrix compared with cells grown on plastic: several fold increased sensitivity
[1]
  activity against actively growing cells in vivo (fluorescence imaging): none of the three compounds had any activity
MDA-MB-468 cells
  EC50 of cells grown in SISgel compared with monolayers or Matrigel: lower EC50 values
B16-F10 cells
  EC50 of cells grown in SISgel compared with monolayers or Matrigel: lower EC50 values
[2]
  effect on ECM-suppressed cells in vivo (fluorescence imaging): caused disappearance of the cells

## CC(C)=CCC(OC(=O)C=C(C)C)C1=CC(=O)c2c(O)ccc(O)c2C1=O (stereo not drawn) [NSC140377]
Suppressed cancer cells
  sensitivity of cells on normal matrix compared with cells grown on plastic: several fold increased sensitivity

## Cc1cc(C)c(NC(=O)/C=C/c2ccccc2)c(C)c1 [NSC 191384]
Suppressed cancer cells
  sensitivity of cells on normal matrix compared with cells grown on plastic: several fold increased sensitivity
J82 cells
  activity against cancer cells under suppressing conditions compared with non-suppressing cell culture (dose-response, FIG. 2): more active against cancer cells grown under the suppressing conditions

## CC1=C(N2CC2)C(=O)C(CO)=C(N2CC2)C1=O [NSC 697726]
Suppressed cancer cells
  sensitivity of cells on normal matrix compared with cells grown on plastic: several fold increased sensitivity

## Wool Violet 2R
Suppressed cancer cells
  sensitivity of cells on normal matrix compared with cells grown on plastic: several fold increased sensitivity
[1]
  activity against actively growing cells in vivo (fluorescence imaging): none of the three compounds had any activity
[2]
  effect on ECM-suppressed cells in vivo (fluorescence imaging): caused disappearance of the cells
